Key:
[1] = test system: MDA-MB-436 cells; experiment: First in-vitro cytological inhibitory activity experiment (CelltiterGlo assay); format: cell-based, human; conditions: Experimental Example 2, 4,000 cells/well, 7 days, read-out: In-vitro cytological activities, IC50, MDA-MB-436
Procedure: Experimental Example 2 First Experiment of in-vitro Cytological Inhibitory Activities of Compounds of the Present Disclosure
A cell line used in the following experiment was as follows: MDA-MB-436: human breast cancer cells.
Experimental method (CelltiterGlo assay)
All cells were adherent cells, the medium was DMEM+10% FBS+1% ITS-G+16 μg/ml glutathione, and the cells were tested in a logarithmic growth phase.
Cells in the logarithmic growth phase were collected and counted by a […]. The cell viability was detected by a trypan blue exclusion method, and the cell viability was kept over 90%. The cell concentration was adjusted to be in a proper range, and 90 μL of cell suspension was added into a 96-well plate respectively.
2.1 DMSO stock solutions of the test compounds were prepared, and concentrations of the stock solutions of the test compounds were 10 mM respectively.
The stock solutions of the test compounds were serially diluted from 10 mM with DMSO in a 3-fold gradient for a total of 8 concentrations. Then, 2 µL of DMSO-gradient diluted compounds were respectively added into 198 µL of culture solutions to give the working stock solutions of the test compounds (a compound concentration was 10-fold higher than the final concentration, and a maximum concentration was […]).
10 μL of compound working stock solution was added into each well in the 96-well plate inoculated with cells (10-fold dilution, a final DMSO concentration was 0.1%).
Solvent control: 0.1% DMSO. […]
A CTG reagent was thawed and the 96-well plate was equilibrated to room temperature for 30 minutes, 60 μL of reagent (Celititer Glo assay kit) was added into each well, shaking was carried out for 2 minutes with a shaker (in the absence of light), and the plate was incubated at room temperature for 20 minutes (in the absence of light). Light signal values were read on a multi-functional microplate reader.
1) inhibition (%)=(DMSO solvent control well reading−test compound well reading)/(DMSO solvent control well reading−blank control well reading)×100%; […]

[2] = molecular target: Recombinant Human His6-USP1/His6-UAF1 Complex Protein (Homo sapiens (Human), UniProt O94782); experiment: In-vitro enzymatic activity on USP1, first experimental method (Ub-Rho substrate, 15 min incubation); format: biochemical; conditions: incubation at room temperature 15 minutes, read-out: Inhibitory activities on USP-1, IC50
Chain of Recombinant Human His6-USP1/His6-UAF1 Complex Protein (O94782 whole entry): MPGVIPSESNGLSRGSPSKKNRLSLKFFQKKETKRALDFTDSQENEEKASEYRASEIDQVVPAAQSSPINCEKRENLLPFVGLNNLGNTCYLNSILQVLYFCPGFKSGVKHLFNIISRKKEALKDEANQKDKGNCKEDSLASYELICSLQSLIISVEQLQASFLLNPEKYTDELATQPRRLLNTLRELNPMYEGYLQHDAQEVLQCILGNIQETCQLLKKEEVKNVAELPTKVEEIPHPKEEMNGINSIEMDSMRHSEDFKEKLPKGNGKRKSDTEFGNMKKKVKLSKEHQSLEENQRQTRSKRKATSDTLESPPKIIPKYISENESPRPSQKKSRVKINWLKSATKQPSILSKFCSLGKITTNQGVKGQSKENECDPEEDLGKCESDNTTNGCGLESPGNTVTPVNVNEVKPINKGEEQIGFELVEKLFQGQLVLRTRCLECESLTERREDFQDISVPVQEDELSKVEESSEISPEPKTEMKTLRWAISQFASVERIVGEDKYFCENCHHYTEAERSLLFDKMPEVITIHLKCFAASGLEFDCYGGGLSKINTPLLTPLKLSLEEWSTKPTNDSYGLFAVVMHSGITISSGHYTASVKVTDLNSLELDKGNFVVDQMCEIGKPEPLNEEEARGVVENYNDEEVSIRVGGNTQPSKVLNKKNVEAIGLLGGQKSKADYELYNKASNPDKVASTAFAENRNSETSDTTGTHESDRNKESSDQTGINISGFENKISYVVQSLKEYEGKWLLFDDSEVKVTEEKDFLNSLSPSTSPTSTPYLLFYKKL
Chain of Recombinant Human His6-USP1/His6-UAF1 Complex Protein (Q8TAF3 whole entry partner): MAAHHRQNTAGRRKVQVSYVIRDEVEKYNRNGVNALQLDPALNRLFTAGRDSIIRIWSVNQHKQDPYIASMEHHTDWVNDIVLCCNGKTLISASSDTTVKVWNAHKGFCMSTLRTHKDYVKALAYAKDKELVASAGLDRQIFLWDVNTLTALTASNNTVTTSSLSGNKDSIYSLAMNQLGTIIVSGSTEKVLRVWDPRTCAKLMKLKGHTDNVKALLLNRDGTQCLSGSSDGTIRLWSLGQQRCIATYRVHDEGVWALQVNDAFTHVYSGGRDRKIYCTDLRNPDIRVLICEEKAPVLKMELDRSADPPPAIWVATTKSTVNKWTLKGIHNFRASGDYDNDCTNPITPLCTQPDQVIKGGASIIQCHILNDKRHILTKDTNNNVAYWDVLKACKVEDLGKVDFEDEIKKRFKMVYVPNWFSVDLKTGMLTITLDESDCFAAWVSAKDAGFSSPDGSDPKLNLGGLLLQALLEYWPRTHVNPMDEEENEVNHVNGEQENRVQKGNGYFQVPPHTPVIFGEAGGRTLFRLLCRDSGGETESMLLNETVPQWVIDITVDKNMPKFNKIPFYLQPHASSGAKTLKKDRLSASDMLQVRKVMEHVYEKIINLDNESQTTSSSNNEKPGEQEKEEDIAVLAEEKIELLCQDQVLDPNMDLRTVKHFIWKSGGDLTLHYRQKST
Procedure: Experimental Example 1 In-vitro Enzymatic Activities of Compounds of the Present Disclosure
First Experimental Method:
1) The compounds of the present disclosure were prepared to 10 mM with DMSO, and used as test stock solutions.
2) The stock solutions of the compounds of the present disclosure were diluted in a 4-fold gradient for 10 concentrations, with a maximum concentration of 10 mM.
3) The diluted compounds of the present disclosure were respectively transferred to 384-well plates (diluted by 1,000 folds) by Echo550, 2 multiple wells were set for each concentration, and a final concentration of DMSO was […].
1) An enzyme solution was prepared in 1×test buffer.
2) Ubiquitin Rhodamine 110 protein, CF (UB-Rho), was added into 1×determination buffer to prepare a substrate solution.
3) 10 μL of enzyme solution and 1×reaction buffer were transferred to a 384-well plate, and
4) incubated at room temperature for 15 minutes.
5) 10 μL of substrate solution was added into each well to start the reaction, centrifuged for 30 seconds, and shaken for 30 seconds.
1) Plate reading was carried out on SpectraMax Paradigm for 30 minutes, with an excitation wavelength of 480 nm and an emission wavelength of 540 nm.
2) Data on SpectraMax Paradigm were collected.
An inhibition (% inh) was calculated by the following formula:
[formula] • wherein, Max represented: a luminous signal intensity of a positive control well without adding the compound; • Min represented: a luminous signal intensity of a negative control well without adding the enzyme; and • Signal represented: a luminous signal intensity of the compound of the test sample.
IC50 was Calculated by the Following Formula:
[formula] • wherein, Y represented: % inhibition; and • X represented: the concentration of the compound.

[3] = set-up: species or system mice; conditions: mouse, in vivo, iv, 5 mg/kg
Procedure: Experiment Example 4 Pharmacokinetic Experiment of Compounds of the Present Disclosure 1. Test compounds: the compounds in the examples of the present disclosure, prepared according to the examples in the specification of the present disclosure. [table] (1) Intravenous administration (iv): 2.54 mg of compound 11 was taken, added with 0.495 ml of DMSO solution to be dissolved by vortex and ultrasound, added with 0.495 ml of PEG400 to be mixed by vortex, and then added with 1.484 ml of 28% HP-β-CD to be mixed by vortex to obtain a clear solution, with a concentration of 1 mg/ml. (2) Oral administration (po): 3.33 mg of compound 11 was taken, added with 3.243 ml of solvent (2% HPC+0.1% Tween 80), and ground evenly to obtain a uniform suspension, with a concentration of 1 mg/ml. The test compounds were administered intravenously (iv), with an administration dosage of 5 mg/kg and an administration volume of 5 ml/kg. The test compounds were administered orally (po), with an administration dosage of 10 mg/kg and an administration volume of 10 ml/kg. […] LC-MS/MS was to be analyzed.

## COc1ncnc(C2CC2)c1-c1nc2c3c(nn(Cc4ccc(-c5nc(C(F)(F)F)cn5C)cc4)c3n1)CCCC2 [Compound 11, 4-(4-cyclopropyl-6-methoxypyrimidine-5-yl)-2-(4-(1-methyl-4-(trifluoromethyl)-1H-imidazol-2-yl)benzyl)-6,7,8,9-tetrahydro-2H-1,2,3,5-tetraazabenzo[cd]pyrene]
[1]
  IC50: 101 nM
[2]
  IC50: 22 nM
[3]
  exposure: more than 6,000 h*ng/ml
